# Experimental data from US20240400560A1, “BICYCLIC HETEROCYCLIC DERIVATIVE HAVING VIRAL GROWTH INHIBITORY ACTIVITY AND PHARMACEUTICAL COMPOSITION CONTAINING SAME” (Shionogi & Co., Ltd., priority 2021, published 2024).
# pEC50, pIC50: −log10 of the molar value. Where two headings read alike, the source gives them in different places.
# Legend:
# [1] = test system: SARS-CoV-2; assay: Inhibitory activity of cytopathic effect (CPE) in HEK293T/ACE2-TMPRSS2 cells; assay type: cell-based; conditions: Severe acute respiratory syndrome coronavirus 2, HEK-293T, 72 h
# [2] = target: SARS-CoV-2 3CL protease (Severe acute respiratory syndrome coronavirus 2, UniProt P0DTD1); assay: Inhibitory activity test against SARS-CoV-2 3CL proteases; assay type: biochemical
# [3] = HEK293T/ACE2-TMPRSS2 cells, cultured 3 days, CellTiter-Glo 2.0 luminescence, read-out: EC50 (50% SARS-CoV-2 infected cell death inhibitory concentration)
# [4] = read-out: IC50 (50% SARS-CoV-2 3CL protease inhibitory concentration)
# [5] = 50% SARS-CoV-2 infected cell death inhibitory concentration, HEK293T/ACE2-TMPRSS2 cells, CellTiter-Glo 2.0 after 3 days culture, read-out: EC50
Structure (SMILES),pEC50 [1],pIC50 ([2]; IC50 (50% SARS-CoV-2 3CL protease inhibitory concentration)),"pEC50 [1, 3]","pIC50 [2, 4]","pEC50 [1, 5]"
COc1nc(N2[C@@H]3CC[C@H]2CNC3)cc2c1c(=O)n(-c1cnc3ccc(Cl)cn13)c(=O)n2-c1ccc(F)c(Cl)c1 [Compound I-0806],7.60,8.41,,,
COc1nc(N2CCC(F)(F)C2)cc2c1c(=O)n(-c1cnc3ccccn13)c(=O)n2-c1ccc(F)c(Cl)c1 [Compound I-0808],,,> 7.00,> 7.00,
Cn1cnc(Cn2c(=O)c3c4nccnc4c(-c4cc(C#N)ccc4Cl)cc3n(Cc3cc(F)c(F)c(Cl)c3)c2=O)n1 [Compound I-0809],,,> 7.00,> 7.00,
Cn1cnc(Cn2c(=O)c3c4nccnc4c(-c4cc(C(C)(C)O)ccc4Cl)cc3n(Cc3cc(F)c(F)c(Cl)c3)c2=O)n1 [Compound I-0810],,,,8.89,7.71
Cn1cnc(Cn2c(=O)c3c4c(c(-c5cc(C#N)ccc5Cl)cc3n(Cc3cc(F)c(F)c(Cl)c3)c2=O)CCO4)n1 [Compound I-0811],,,> 7.00,> 7.00,
Cn1cnc(Cn2c(=O)c3c4c(c(-c5cc(C(C)(C)O)ccc5Cl)cc3n(Cc3cc(F)c(F)c(Cl)c3)c2=O)CCO4)n1 [Compound I-0812],,,,8.96,7.80
Cn1cnc(Cn2c(=O)c3c4nccnc4c(N4CCC(F)(F)C4)cc3n(Cc3cc(F)c(F)c(Cl)c3)c2=O)n1 [Compound I-0813],,,> 7.00,> 7.00,
Cn1cnc(Cn2c(=O)c3c4c(c(N5CCC(F)(F)C5)cc3n(Cc3cc(F)c(F)c(Cl)c3)c2=O)CCO4)n1 [Compound I-0814],,,> 7.00,> 7.00,
Cn1cnc(Cn2c(=O)c3c4nccnc4c(-c4cc(C(C)(C)O)c(F)cc4Cl)cc3n(Cc3cc(F)c(F)c(Cl)c3)c2=O)n1 [Compound I-0815],,,> 7.00,> 7.00,
COc1nc2c(=O)n(Cc3ncn(C)n3)c(=O)n(Cc3cc(F)c(F)c(Cl)c3)c2cc1-c1cc(C(C)(C)O)c(F)cc1Cl [Compound I-0816],,,> 7.00,> 7.00,
COc1nc2c(=O)n(Cc3ncn(C)n3)c(=O)n(Cc3cc(F)c(F)c(Cl)c3)c2cc1-c1nc(C#N)ccc1Cl [Compound I-0819],,,> 7.00,> 7.00,
COc1ccc(Cl)c(-c2cc3c(nc2OC)c(=O)n(Cc2ncn(C)n2)c(=O)n3Cc2cc(F)c(F)c(Cl)c2)n1 [Compound I-0820],,,> 7.00,> 7.00,
COc1ccc(Cl)c(-c2cc3c(nc2OC)c(=O)n(Cc2ncn(C)n2)c(=O)n3Cc2cc(Cl)c(F)cc2C)n1 [Compound I-0821],,,,8.00,7.42
COc1nc2c(=O)n(Cc3ncn(C)n3)c(=O)n(Cc3cc(Cl)c(F)cc3C)c2cc1-c1cc(C(C)(C)O)ccc1Cl [Compound I-0822],,,> 7.00,> 7.00,
Cn1cnc(Cn2c(=O)c3c4nccnc4c(-c4cc5c(cc4Cl)NC(=O)C5)cc3n(Cc3cc(F)c(F)c(Cl)c3)c2=O)n1 [Compound I-0823],,,,9.12,6.71
COc1cc(-c2nc(C)ccc2Cl)cc2c1c(=O)n(Cc1ncn(C)n1)c(=O)n2Cc1cc(F)c(F)c(F)c1 [Compound I-0826],,,> 7.00,> 7.00,
COc1cc(-c2ncc(F)cc2Cl)cc2c1c(=O)n(Cc1ncn(C)n1)c(=O)n2Cc1cc(F)c(F)c(F)c1 [Compound I-0827],,,6.00 to 7.00,> 7.00,
COc1cc(-c2ncc(N)cc2Cl)cc2c1c(=O)n(Cc1ncn(C)n1)c(=O)n2Cc1cc(F)c(F)c(F)c1 [Compound I-0834],,,> 7.00,> 7.00,
COc1cc(-c2ncccc2Cl)cc2c1c(=O)n(Cc1ncn(C)n1)c(=O)n2Cc1cc(F)c(F)c(F)c1 [Compound I-0838],,,6.00 to 7.00,> 7.00,
COc1cc(-c2cc([C@@H](C)O)ccc2Cl)cc2c1c(=O)n(Cc1ncn(C)n1)c(=O)n2Cc1cc(F)c(F)c(F)c1 [Compound I-0839],,,6.00 to 7.00,> 7.00,
COc1cc(-c2cc([C@H](C)O)ccc2Cl)cc2c1c(=O)n(Cc1ncn(C)n1)c(=O)n2Cc1cc(F)c(F)c(F)c1 [Compound I-0840],,,> 7.00,> 7.00,
COc1nc(-c2cc(C#N)ccc2Cl)cc2c1c(=O)n(-c1cnc3ccccn13)c(=O)n2Cc1ccc(F)c(C#N)c1 [Compound I-0842],,,,7.47,7.05

Structure (SMILES),pEC50 [1],pIC50 ([2]; IC50 (50% SARS-CoV-2 3CL protease inhibitory concentration)),"pEC50 [1, 3]","pIC50 [2, 4]","pEC50 [1, 5]"
COc1nc2c(=O)n(-c3cnc4cc(F)ccn34)c(=O)n(Cc3cc(Cl)c(F)cc3C)c2cc1-c1cc(C(C)(C)O)ccc1Cl [Compound I-0843],,,,8.13,7.14
N#Cc1ccc(Cl)c(-c2cc3c(c(=O)n(-c4cnc5ccccn45)c(=O)n3Cc3cc(F)c(F)c(F)c3)c3nccnc23)c1 [Compound I-0844],,,> 7.00,> 7.00,
COc1cc(-c2cccc(C#N)c2Cl)cc2c1c(=O)n(Cc1ncn(C)n1)c(=O)n2Cc1cc(F)c(F)c(F)c1 [Compound I-0847],,,6.00 to 7.00,> 7.00,
COc1cc(-c2cc3nc(C(F)F)[nH]c3cc2Cl)cc2c1c(=O)n(Cc1ncn(C)n1)c(=O)n2Cc1cc(F)c(F)c(F)c1 [Compound I-0848],,,6.00 to 7.00,> 7.00,
CCOc1nc2cc(-c3cc(OC)c4c(=O)n(Cc5ncn(C)n5)c(=O)n(Cc5cc(F)c(F)c(F)c5)c4c3)c(Cl)cc2[nH]1 [Compound I-0852],,,6.00 to 7.00,> 7.00,
COc1nc2cc(-c3cc(OC)c4c(=O)n(Cc5ncn(C)n5)c(=O)n(Cc5cc(F)c(F)c(Cl)c5)c4c3)c(Cl)cc2[nH]1 [Compound I-0858],,,,8.62,7.36
N#Cc1ccc(Cl)c(-c2cc3c(c4c2C(O)CO4)c(=O)n(-c2cncc(Cl)c2)c(=O)n3Cc2cc(F)c(F)c(F)c2)c1 (centres unmarked) [Compound I-0859],,,,8.72,7.73
N#Cc1ccc(Cl)c(-c2cc3c(c(=O)n(-c4cncc(Cl)c4)c(=O)n3Cc3cc(F)c(F)c(F)c3)c3occc23)c1 [Compound I-0863],,,,8.28,7.28
Cn1cnc(Cn2c(=O)c3c4c(c(-c5cc(C#N)ccc5Cl)cc3n(Cc3cc(F)c(F)c(F)c3)c2=O)[C@@H](O)CO4)n1 [Compound I-0864],,,,8.85,7.34
Cn1cnc(Cn2c(=O)c3c4c(c(-c5cc(C#N)ccc5Cl)cc3n(Cc3cc(F)c(F)c(F)c3)c2=O)[C@H](O)CO4)n1 [Compound I-0865],,,6.00 to 7.00,> 7.00,
Cn1cnc(Cn2c(=O)c3c4c(c(-c5cc(C#N)ccc5Cl)cc3n(Cc3cc(F)c(F)c(F)c3)c2=O)C(F)(F)CO4)n1 [Compound I-0866],,,,8.19,7.81
COc1cc(-c2c(Cl)ccc3c2CCN(C)C3=O)cc2c1c(=O)n(Cc1ncn(C)n1)c(=O)n2Cc1cc(F)c(F)c(F)c1 [Compound I-0867],,,,8.92,7.32
COc1cc(-c2c(Cl)ccc3c2CCC(=O)N3C)cc2c1c(=O)n(Cc1ncn(C)n1)c(=O)n2Cc1cc(F)c(F)c(F)c1 [Compound I-0868],,,,8.80,7.67
COc1cc(-c2c(Cl)ccc3c2CC(=O)N3C)cc2c1c(=O)n(Cc1ncn(C)n1)c(=O)n2Cc1cc(F)c(F)c(F)c1 [Compound I-0869],,,> 7.00,> 7.00,
CNC(=O)c1ccc(Cl)c(-c2cc3c(c4c2CCO4)c(=O)n(Cc2ncn(C)n2)c(=O)n3Cc2cc(F)c(F)c(Cl)c2)n1 [Compound I-0870],,,> 7.00,> 7.00,
Cn1cnc(Cn2c(=O)c3c4c(c(N5CCCC5=O)cc3n(Cc3cc(F)c(F)c(Cl)c3)c2=O)CCO4)n1 [Compound I-0871],,,,8.18,7.96
COc1nc(-c2c(Cl)ccc3c2CCN(C)C3=O)cc2c1c(=O)n(Cc1ncn(C)n1)c(=O)n2Cc1cc(F)c(F)c(Cl)c1 [Compound I-0874],,,,8.03,7.41
COc1cc(-c2cc3c(C(F)(F)F)n[nH]c3cc2Cl)cc2c1c(=O)n(Cc1ncn(C)n1)c(=O)n2Cc1cc(F)c(F)c(F)c1 [Compound I-0875],,,> 7.00,> 7.00,
[2H]C([2H])([2H])N1CCc2c(ccc(Cl)c2-c2cc(OC)c3c(=O)n(Cc4ncn(C)n4)c(=O)n(Cc4cc(F)c(F)c(F)c4)c3c2)C1=O [Compound I-0876],,,> 7.00,> 7.00,
CNC(=O)c1ccc(Cl)c(-c2cc3c(nc2OC)c(=O)n(Cc2ncn(C)n2)c(=O)n3Cc2cc(F)c(F)c(Cl)c2)n1 [Compound I-0878],,,,8.41,7.86
COc1nc2c(=O)n(Cc3ncn(C)n3)c(=O)n(Cc3cc(F)c(F)c(Cl)c3)c2cc1-c1nc(C(F)F)ccc1Cl [Compound I-0879],,,> 7.00,> 7.00,
